Results as given in ChEMBL document CHEMBL2203015, “Synthesis and biological evaluation of 5-aryloxypyrazole derivatives bearing a rhodanine-3-aromatic acid as potential antimicrobial agents” (Bioorg Med Chem Lett, 2012).
Values after ≈ are worked out from the molar mass of the structure shown.

Key:
Type in all cases: functional
Staphylococcus aureus [1] = assay: Antibacterial activity against quinolone-resistant Staphylococcus aureus CCARM 3519 incubated for 24 hrs serial dilution method; conditions: CCARM 3519, 24 h
Staphylococcus aureus [2] = assay: Antibacterial activity against quinolone-resistant Staphylococcus aureus CCARM 3505 incubated for 24 hrs serial dilution method; conditions: CCARM 3505, 24 h
Staphylococcus aureus [3] = assay: Antibacterial activity against multidrug-resistant Staphylococcus aureus CCARM 3506 incubated for 24 hrs serial dilution method; conditions: CCARM 3506, 24 h
Staphylococcus aureus [4] = assay: Antibacterial activity against multidrug-resistant Staphylococcus aureus CCARM 3167 incubated for 24 hrs serial dilution method; conditions: CCARM 3167, 24 h
Escherichia coli = assay: Antibacterial activity against Escherichia coli 1356 incubated for 24 hrs serial dilution method; conditions: Escherichia coli, 1356, 24 h
Staphylococcus aureus [5] = assay: Antibacterial activity against Staphylococcus aureus KCTC 503 incubated for 24 hrs serial dilution method; conditions: KCTC 503, 24 h
Staphylococcus aureus [6] = assay: Antibacterial activity against Staphylococcus aureus KCTC 209 incubated for 24 hrs serial dilution method; conditions: KCTC 209, 24 h
Staphylococcus aureus [7] = assay: Antibacterial activity against Staphylococcus aureus RN 4220 incubated for 24 hrs serial dilution method; conditions: RN 4220, 24 h

SMILES	MIC (Staphylococcus aureus [1]) [µg/mL]	MIC (Staphylococcus aureus [2]) [µg/mL]	MIC (Staphylococcus aureus [3]) [µg/mL]	MIC (Staphylococcus aureus [4]) [µg/mL]	MIC (Escherichia coli) [µg/mL]	MIC (Staphylococcus aureus [5]) [µg/mL]	MIC (Staphylococcus aureus [6]) [µg/mL]	MIC (Staphylococcus aureus [7]) [µg/mL]
Cc1nn(-c2ccccc2)c(Oc2ccc3ccccc3c2)c1/C=C1\SC(=S)N([C@@H](Cc2ccc(O)cc2)C(=O)O)C1=O	8 (≈ 13.2 µM)	8 (≈ 13.2 µM)	8 (≈ 13.2 µM)	8 (≈ 13.2 µM)	> 64	> 64	> 64	8 (≈ 13.2 µM)
Cc1nn(-c2ccccc2)c(Oc2ccc(F)cc2)c1/C=C1\SC(=S)N([C@@H](Cc2ccc(O)cc2)C(=O)O)C1=O					> 64	> 64	> 64	> 32
Cc1nn(-c2ccccc2)c(Oc2ccccc2)c1/C=C1\SC(=S)N([C@@H](Cc2c[nH]c3ccccc23)C(=O)O)C1=O	8 (≈ 13.8 µM)	8 (≈ 13.8 µM)	8 (≈ 13.8 µM)	8 (≈ 13.8 µM)	> 64	> 64	> 64	8 (≈ 13.8 µM)
Cc1nn(-c2ccccc2)c(Oc2ccc(F)cc2)c1/C=C1\SC(=S)N([C@@H](Cc2c[nH]c3ccccc23)C(=O)O)C1=O	8 (≈ 13.4 µM)	8 (≈ 13.4 µM)	4 (≈ 6.68 µM)	4 (≈ 6.68 µM)	> 64	> 64	> 64	8 (≈ 13.4 µM)
Cc1ccccc1Oc1c(/C=C2\SC(=S)N([C@@H](Cc3ccc(O)cc3)C(=O)O)C2=O)c(C)nn1-c1ccccc1	32 (≈ 56 µM)	32 (≈ 56 µM)	16 (≈ 28 µM)	16 (≈ 28 µM)	> 64	> 64	> 64	16 (≈ 28 µM)
Cc1nn(-c2ccccc2)c(Oc2ccc(Cl)cc2)c1/C=C1\SC(=S)N([C@@H](Cc2c[nH]c3ccccc23)C(=O)O)C1=O	2 (≈ 3.25 µM)	2 (≈ 3.25 µM)	2 (≈ 3.25 µM)	2 (≈ 3.25 µM)	> 64	> 64	> 64	2 (≈ 3.25 µM)
Cc1cccc(Oc2c(/C=C3\SC(=S)N([C@@H](Cc4c[nH]c5ccccc45)C(=O)O)C3=O)c(C)nn2-c2ccccc2)c1	8 (≈ 13.5 µM)	8 (≈ 13.5 µM)	4 (≈ 6.73 µM)	4 (≈ 6.73 µM)	> 64	> 64	> 64	4 (≈ 6.73 µM)
Cc1nn(-c2ccccc2)c(Oc2cccc(Cl)c2)c1/C=C1\SC(=S)N([C@@H](Cc2c[nH]c3ccccc23)C(=O)O)C1=O	4 (≈ 6.5 µM)	4 (≈ 6.5 µM)	4 (≈ 6.5 µM)	2 (≈ 3.25 µM)	> 64	> 64	> 64	4 (≈ 6.5 µM)
Cc1onc(-c2ccccc2)c1C(=O)N[C@@H]1C(=O)N2[C@@H]1SC(C)(C)[C@@H]2C(=O)O [OXACILLIN]	1 (≈ 2.49 µM)	1 (≈ 2.49 µM)	> 64	> 64	> 64	1 (≈ 2.49 µM)	1 (≈ 2.49 µM)	1 (≈ 2.49 µM)
Cc1nn(-c2ccccc2)c(Oc2ccccc2Cl)c1/C=C1\SC(=S)N([C@@H](Cc2ccc(O)cc2)C(=O)O)C1=O					> 64	> 64	> 64	> 32
Cc1nn(-c2ccccc2)c(Oc2c(Cl)cccc2Cl)c1/C=C1\SC(=S)N([C@@H](Cc2ccc(O)cc2)C(=O)O)C1=O	16 (≈ 25.5 µM)	16 (≈ 25.5 µM)	8 (≈ 12.8 µM)	8 (≈ 12.8 µM)	> 64	> 64	> 64	16 (≈ 25.5 µM)
Cc1nn(-c2ccccc2)c(Oc2ccccc2Cl)c1/C=C1\SC(=S)N([C@@H](Cc2c[nH]c3ccccc23)C(=O)O)C1=O	4 (≈ 6.5 µM)	4 (≈ 6.5 µM)	4 (≈ 6.5 µM)	2 (≈ 3.25 µM)	> 64	> 64	> 64	4 (≈ 6.5 µM)
Cc1nn(-c2ccccc2)c(Oc2c(Cl)cccc2Cl)c1/C=C1\SC(=S)N([C@@H](Cc2c[nH]c3ccccc23)C(=O)O)C1=O	4 (≈ 6.16 µM)	4 (≈ 6.16 µM)	4 (≈ 6.16 µM)	4 (≈ 6.16 µM)	> 64	> 64	> 64	4 (≈ 6.16 µM)
Cc1cccc(Oc2c(/C=C3\SC(=S)N([C@@H](Cc4ccc(O)cc4)C(=O)O)C3=O)c(C)nn2-c2ccccc2)c1	16 (≈ 28 µM)	16 (≈ 28 µM)	8 (≈ 14 µM)	16 (≈ 28 µM)	> 64	> 64	> 64	16 (≈ 28 µM)
Cc1nn(-c2ccccc2)c(Oc2ccc(Cl)cc2Cl)c1/C=C1\SC(=S)N([C@@H](Cc2ccc(O)cc2)C(=O)O)C1=O	8 (≈ 12.8 µM)	8 (≈ 12.8 µM)	8 (≈ 12.8 µM)	8 (≈ 12.8 µM)	> 64	> 64	> 64	8 (≈ 12.8 µM)
COc1ccccc1Oc1c(/C=C2\SC(=S)N([C@@H](Cc3c[nH]c4ccccc34)C(=O)O)C2=O)c(C)nn1-c1ccccc1	8 (≈ 13.1 µM)	8 (≈ 13.1 µM)	8 (≈ 13.1 µM)	8 (≈ 13.1 µM)	> 64	> 64	> 64	16 (≈ 26.2 µM)
Cc1nn(-c2ccccc2)c(Oc2cccc(C(F)(F)F)c2)c1/C=C1\SC(=S)N([C@@H](Cc2c[nH]c3ccccc23)C(=O)O)C1=O	8 (≈ 12.3 µM)	4 (≈ 6.17 µM)	4 (≈ 6.17 µM)	4 (≈ 6.17 µM)	> 64	> 64	> 64	4 (≈ 6.17 µM)
CCn1cc(C(=O)O)c(=O)c2cc(F)c(N3CCNCC3)cc21 [NORFLOXACIN]	> 64	> 64	4 (≈ 12.5 µM)	8 (≈ 25.1 µM)	> 16	2 (≈ 6.26 µM)	2 (≈ 6.26 µM)	2 (≈ 6.26 µM)
COc1ccccc1Oc1c(/C=C2\SC(=S)N([C@@H](Cc3ccc(O)cc3)C(=O)O)C2=O)c(C)nn1-c1ccccc1					> 64	> 64	> 64	> 32
Cc1nn(-c2ccccc2)c(Oc2ccc3ccccc3c2)c1/C=C1\SC(=S)N([C@@H](Cc2c[nH]c3ccccc23)C(=O)O)C1=O	2 (≈ 3.17 µM)	2 (≈ 3.17 µM)	2 (≈ 3.17 µM)	2 (≈ 3.17 µM)	> 64	> 64	> 64	2 (≈ 3.17 µM)
Cc1ccc(Oc2c(/C=C3\SC(=S)N([C@@H](Cc4ccc(O)cc4)C(=O)O)C3=O)c(C)nn2-c2ccccc2)cc1	16 (≈ 28 µM)	16 (≈ 28 µM)	8 (≈ 14 µM)	8 (≈ 14 µM)	> 64	> 64	> 64	16 (≈ 28 µM)
Cc1nn(-c2ccccc2)c(Oc2cccc(Cl)c2)c1/C=C1\SC(=S)N([C@@H](Cc2ccc(O)cc2)C(=O)O)C1=O	16 (≈ 27 µM)	32 (≈ 54 µM)	16 (≈ 27 µM)	8 (≈ 13.5 µM)	> 64	> 64	> 64	16 (≈ 27 µM)
Cc1nn(-c2ccccc2)c(Oc2ccccc2)c1/C=C1\SC(=S)N([C@@H](Cc2ccc(O)cc2)C(=O)O)C1=O					> 64	> 64	> 64	> 32
COc1ccc(Oc2c(/C=C3\SC(=S)N([C@@H](Cc4ccc(O)cc4)C(=O)O)C3=O)c(C)nn2-c2ccccc2)cc1					> 64	> 64	> 64	> 32
